Source: patent US8231888B2, “Isoxazolines for controlling invertebrate pests” (priority 2005, dated 2012)

How the values were obtained:
Type in all cases: in vivo
[1] = system: diamondback moth (Plutella xylostella); assay: Test A: control of diamondback moth on radish plant, foliar spray; settings: 6 days, 25° C.
From the text: For evaluating control of diamondback moth (Plutella xylostella) the test unit consisted of a small open container with a 12-14-day-old radish plant inside. This was pre-infested with about 50 neonate larvae that were dispensed into the test unit via corn cob grits using a bazooka inoculator. The larvae moved onto the test plant after being dispensed into the test unit.
(§1) Test compounds were formulated using a solution containing 10% acetone, 90% water and 300 ppm X-77™ Spreader Lo-Foam Formula non-ionic surfactant containing alkylarylpolyoxyethylene, free fatty acids, glycols and isopropanol (Loveland Industries, Inc. Greeley, Colo., USA). The formulated compounds were applied in 1 mL of liquid through a SUJ2 atomizer nozzle with 1/8 JJ custom body (Spraying Systems Co. Wheaton, Ill., USA) positioned 1.27 cm (0.5 inches) above the top of each test unit. All experimental compounds in these tests were sprayed at 250 and/or 50 ppm, and the test was replicated three times. After spraying of the formulated test compound, each test unit was allowed to dry for 1 h and then a black, screened cap was placed on top. The test units were held for 6 days in a growth chamber at 25° C. and 70% relative humidity. Plant feeding damage was then visually assessed based on foliage consumed and a pest mortality rating was also counted and calculated for each test unit.

[2] = system: fall armyworm (Spodoptera frugiperda); assay: Test B: control of fall armyworm on corn (maize) plant, foliar spray
Method: as §1
For evaluating control of fall armyworm (Spodoptera frugiperda) the test unit consisted of a small open container with a 4-5-day-old corn (maize) plant inside. This was pre-infested (using a core sampler) with 10-15 1-day-old larvae on a piece of insect diet. Test compounds were formulated and sprayed at 250 and/or 50 ppm as described for Test A and replicated three times. After spraying, the test units were maintained in a growth chamber and then the control efficacy was rated for each test unit as described for Test A.

[3] = system: western flower thrips (Frankliniella occidentalis); assay: Test D: control of western flower thrips on Soleil bean plant, contact and/or systemic; settings: 6 days, 25° C.
Method: as §1
For evaluating control of the western flower thrips (Frankliniella occidentalis) through contact and/or systemic means, the test unit consisted of a small open container with a 5-7 day old Soleil Bean plant inside. Test compounds were formulated and sprayed at 250 and/or 50 ppm, and the test was replicated three times as described for Test A. After spraying, the test units were allowed to dry for 1 hour and then 22-27 adult thrips were added to each unit and then a black, screened cap was placed on top. The test units were held for 6 days at 25° C. and 45-55% relative humidity. A mortality rating was assessed along with a plant damage rating for each test unit.

[4] = sprayed at 250 and/or 50 ppm, no asterisk (not limited to 250 ppm)
[5] = asterisk: observed only at 250 ppm

Structure (SMILES) | control efficacy (20% or less feeding damage or 80% or more mortality) [1, 4] | control efficacy (20% or less feeding damage or 80% or more mortality) [2, 4] | further results
O=C(NCC(F)(F)F)c1ccc(C2=NOC(c3cc(Cl)cc(Cl)c3)(C(F)(F)F)C2)c2ccccc12 (centres unmarked) [Compound 1] | very good to excellent levels of control efficacy | very good to excellent levels of control efficacy | control efficacy (20% or less feeding damage or 80% or more mortality) [3, 4]: very good to excellent levels of control efficacy
CC(NC(=O)c1ccc(C2=NOC(c3cc(Cl)cc(Cl)c3)(C(F)(F)F)C2)c2ccccc12)c1ccc(Cl)cc1 (mixture of isomers) [Compound 30] | very good to excellent levels of control efficacy | very good to excellent levels of control efficacy | 
NC(=O)c1ccc(C2=NOC(c3cc(Cl)cc(Cl)c3)(C(F)(F)F)C2)c2ccccc12 (centres unmarked) [Compound 36] | very good to excellent levels of control efficacy | very good to excellent levels of control efficacy | 
O=C(N[C@H]1CCCc2ccccc21)c1ccc(C2=NOC(c3cc(Cl)cc(Cl)c3)(C(F)(F)F)C2)c2ccccc12 (some centres unmarked) [Compound 38] | very good to excellent levels of control efficacy |  | 
NCCCCCCNC(=O)c1ccc(C2=NOC(c3cc(Cl)cc(Cl)c3)(C(F)(F)F)C2)c2ccccc12 (centres unmarked) [Compound 50] | very good to excellent levels of control efficacy |  | 
O=C(NCc1ccccn1)c1ccc(C2=NOC(c3cc(Cl)cc(Cl)c3)(C(F)(F)F)C2)c2ncccc12 (centres unmarked) [Compound 106] | very good to excellent levels of control efficacy |  | control efficacy (20% or less feeding damage or 80% or more mortality) [2, 5]: very good to excellent levels of control efficacy
COC(=O)C(NC(=O)c1ccc(C2=NOC(c3cc(Cl)cc(Cl)c3)(C(F)(F)F)C2)c2ccccc12)c1ccccc1 (mixture of isomers) [Compound 29] | very good to excellent levels of control efficacy | very good to excellent levels of control efficacy | 
CC(=O)NNC(=O)c1ccc(C2=NOC(c3cc(Cl)cc(Cl)c3)(C(F)(F)F)C2)c2ccccc12 (centres unmarked) [Compound 45] | very good to excellent levels of control efficacy |  | control efficacy (20% or less feeding damage or 80% or more mortality) [3, 5]: very good to excellent levels of control efficacy
COC(=O)[C@H](C)NC(=O)c1ccc(C2=NOC(c3cc(Cl)cc(Cl)c3)(C(F)(F)F)C2)c2ccccc12 (some centres unmarked) [Compound 48] | very good to excellent levels of control efficacy |  | control efficacy (20% or less feeding damage or 80% or more mortality) [3, 5]: very good to excellent levels of control efficacy
CC(NC(=O)c1ccc(C2=NOC(c3cc(Cl)cc(Cl)c3)(C(F)(F)F)C2)c2ccccc12)c1ccc([N+](=O)[O-])cc1 (mixture of isomers) [Compound 28] | very good to excellent levels of control efficacy | very good to excellent levels of control efficacy | 
O=C(NCc1cccnc1)c1ccc(C2=NOC(c3cc(Cl)cc(Cl)c3)(C(F)(F)F)C2)c2ccccc12 (centres unmarked) [Compound 6] | very good to excellent levels of control efficacy | very good to excellent levels of control efficacy | 
Cc1cc(C)cc(C2(C(F)(F)F)CC(c3ccc(C(=O)NCc4ccccn4)c4ccccc34)=NO2)c1 (centres unmarked) [Compound 22] | very good to excellent levels of control efficacy | very good to excellent levels of control efficacy | 
O=C(NCC(F)(F)F)c1ccc(C2=NOC(c3ccnc(Cl)c3)(C(F)(F)F)C2)c2ccccc12 (centres unmarked) [Compound 201] | very good to excellent levels of control efficacy | very good to excellent levels of control efficacy | 
FC(F)(F)CNC(=S)c1ccc(C2=NOC(c3cc(Cl)cc(Cl)c3)(C(F)(F)F)C2)c2ncccc12 (centres unmarked) [Compound 109] |  |  | control efficacy (20% or less feeding damage or 80% or more mortality) [1, 5]: very good to excellent levels of control efficacy
O=C(NCc1ccccn1)c1ccc(C2=NOC(c3ccnc(Cl)c3)(C(F)(F)F)C2)c2ccccc12 (centres unmarked) [Compound 202] | very good to excellent levels of control efficacy | very good to excellent levels of control efficacy | 
O=C(NCc1ccncc1)c1ccc(C2=NOC(c3cc(Cl)cc(Cl)c3)(C(F)(F)F)C2)c2ccccc12 (centres unmarked) [Compound 7] | very good to excellent levels of control efficacy | very good to excellent levels of control efficacy | 
FC(F)(F)C1(c2cc(Cl)cc(Cl)c2)CC(c2ccc(C(=S)NCc3ccccn3)c3cccnc23)=NO1 (centres unmarked) [Compound 108] |  |  | control efficacy (20% or less feeding damage or 80% or more mortality) [1, 5]: very good to excellent levels of control efficacy
CCC(C)NC(=O)c1ccc(C2=NOC(c3cc(Cl)cc(Cl)c3)(C(F)(F)F)C2)c2ccccc12 (centres unmarked) [Compound 33] |  |  | control efficacy (20% or less feeding damage or 80% or more mortality) [3, 5]: very good to excellent levels of control efficacy
CNC(=O)c1ccc(C2=NOC(c3cc(Cl)cc(Cl)c3)(C(F)(F)F)C2)c2ccccc12 (centres unmarked) [Compound 12] | very good to excellent levels of control efficacy | very good to excellent levels of control efficacy | 
O=C(NCc1ccccn1)c1ccc(C2=NOC(c3cc(Cl)cc(Cl)c3)(C(F)(F)F)C2)c2cnccc12 (centres unmarked) [Compound 105] | very good to excellent levels of control efficacy |  | 
CC(NC(=O)c1ccc(C2=NOC(c3cc(Cl)cc(Cl)c3)(C(F)(F)F)C2)c2ccccc12)c1ccc(F)cc1 (mixture of isomers) [Compound 31] | very good to excellent levels of control efficacy | very good to excellent levels of control efficacy | 
O=C(NCc1ccccn1)c1ccc(C2=NOC(c3ccc(Cl)c(Cl)c3)(C(F)(F)F)C2)c2ccccc12 (centres unmarked) [Compound 23] | very good to excellent levels of control efficacy | very good to excellent levels of control efficacy | 
CCN(C)C(=O)c1ccc(C2=NOC(c3cc(Cl)cc(Cl)c3)(C(F)(F)F)C2)c2ccccc12 (centres unmarked) [Compound 9] | very good to excellent levels of control efficacy | very good to excellent levels of control efficacy | 
O=C(O)CNC(=O)c1ccc(C2=NOC(c3cc(Cl)cc(Cl)c3)(C(F)(F)F)C2)c2ccccc12 (centres unmarked) [Compound 43] | very good to excellent levels of control efficacy |  | 
O=C(NCC(F)(F)F)c1ccc(C2=NOC(c3cc(Cl)cc(Cl)c3)(C(F)(F)F)C2)c2ncccc12 (centres unmarked) [Compound 107] |  |  | control efficacy (20% or less feeding damage or 80% or more mortality) [1, 5]: very good to excellent levels of control efficacy; control efficacy (20% or less feeding damage or 80% or more mortality) [2, 5]: very good to excellent levels of control efficacy
NCCNC(=O)c1ccc(C2=NOC(c3cc(Cl)cc(Cl)c3)(C(F)(F)F)C2)c2ccccc12 (centres unmarked) [Compound 47] | very good to excellent levels of control efficacy |  | control efficacy (20% or less feeding damage or 80% or more mortality) [3, 5]: very good to excellent levels of control efficacy
O=C(NCc1ccccn1)c1ccc(C2=NOC(c3cc(Cl)cc(Cl)c3)(C(F)(F)F)C2)c2cccnc12 (centres unmarked) [Compound 103, 5-[5-(3,5-dichlorophenyl)-4,5-dihydro-5-(trifluoromethyl)-3-isoxazolyl]-N-(2-pyridinylmethyl)-8-quinolinecarboxamide] | very good to excellent levels of control efficacy | very good to excellent levels of control efficacy | 
O=C(NCc1ccccn1)c1ccc(C2=NOC(c3cccc(Cl)c3)(C(F)(F)F)C2)c2ccccc12 (centres unmarked) [Compound 25] |  | very good to excellent levels of control efficacy | 
CC(NC(=O)c1ccc(C2=NOC(c3cc(Cl)cc(Cl)c3)(C(F)(F)F)C2)c2ccccc12)c1ccc2ccccc2c1 (mixture of isomers) [Compound 27] | very good to excellent levels of control efficacy |  | 
